From patent publication US20210138012A1, “COMPOSITION FOR PREVENTING, AMELIORATING, OR TREATING RESPIRATORY DISEASE COMPRISING SIRAITIA GROSVENORII EXTRACT AS EFFECTIVE COMPONENT” (KOREA INSTITUTE OF ORIENTAL MEDICINE, priority 2018, published 2021)

What was measured:
IL-4 = IL-4 production in BALF (ELISA), animal asthma model; format: in vivo, Balb/c mouse; conditions: OVA-10 mg/kg
Protocol: (§1) Test was carried out by using an animal model which has been induced to have bronchial asthma by ovalbumin (OVA). As for the test animal, a 7-week old male Balb/c mouse was obtained from Jackson Laboratory (Bar Harbor, Me., USA), and used for the test after acclimation for 1 week. […] On day 3 and day 10 after intraperitoneally administering the first OVA, 2 mg of OVA were administered to the mouse via intratracheal injection. Then, from day 21 onwards for 4 weeks, the mouse was allowed to inhale OVA for 30 minutes by using a ultrasonic sprayer (NE-U12, Omron Co., Tokyo, Japan) (week 1 to week 3; exposed to 1% OVA, week 4; exposed to 2% OVA). Forty-eight hours after the last exposure to OVA, blood was taken from the anesthetized mouse, which was then subjected to autopsy to have observation of a pathological change. […]
(§2) Production amount of interleukins (IL-4, IL-5, and IL-13) in BALF separated from each test animal was measured by a commercially available kit for enzyme-linked immunosorbent assay (ELISA) (R&D System, USA). Analysis of each cytokine was carried out according to the experimental method provided by the manufacturer, and the absorbance at 450 nm was measured using an ELISA reader.

IL-5 = IL-5 production in BALF (ELISA), animal asthma model; format: in vivo, Balb/c mouse; conditions: OVA-10 mg/kg
Protocol: as §1, §2

IL-13 = IL-13 production in BALF (ELISA), animal asthma model; format: in vivo, Balb/c mouse; conditions: OVA-10 mg/kg
Protocol: as §1, §2

[1] = system: BEAS-2B pulmonary bronchial cells; assay: Cytotoxicity in BEAS-2B pulmonary bronchial cells using CCK-8; format: cell-based, human; conditions: 0.1 μM
Protocol: (§3) BEAS-2B cells (ATCC, USA), which are human bronchial epithelial cells, were cultured in Dulbecco's modified eagle medium (DMEM) added with fetal bovine serum (FBS) and penicillin-streptomycin (PS). BEAS-2B cells were cultured again for 18 hours in a 96-well plate (5×10^4 cells/well) containing DMEM 10% medium. The medium was subsequently removed and replaced with serum-free DMEM.

TARC = assay: Inhibition of TARC secretion in TNF-α + IFN-γ + IL-4-treated BEAS-2B cells (ELISA); format: cell-based; conditions: Homo sapiens, TNF-α + IFN-γ + IL-4, 24 hours, read-out: Inhibition rate (%) of TARC secretion
Protocol: as §3
Meanwhile, to measure the secretion amount of TARC, BEAS-2B cells were simultaneously treated with TNF-α (50 ng/ml), IFN-γ (10 ng/ml), and IL-4 (50 ng/ml), and, after culture for 24 hours, the measurement was made by using ELISA kit (R&D systems, USA).

RANTES = assay: Inhibition of RANTES secretion in TNF-α-treated BEAS-2B cells (ELISA); format: cell-based; conditions: Homo sapiens, 10 ng/ml TNF-α, 24 hours, read-out: Inhibition rate (%) of RANTES secretion
Protocol: as §3
After that, to measure the secretion amount of RANTES, the cells were simultaneously treated with a test sample and TNF-α (10 ng/ml) and cultured for 24 hours. Secretion amount of RANTES present in cell supernatant was measured by using ELISA kit (R&D systems, USA) according to the manufacturer's protocol. As a positive control group, 0.1 μM dexamethasone was used.

Compound CC(C)(O)c1ccccc1CC[C@@H](SCC1(CC(=O)O)CC1)c1cccc(/C=C/c2ccc3ccc(Cl)cc3n2)c1 [Montelukast, montelukast] has an IL-4 (IL-4) of 60.37 ± 12.05 pg/mL, an IL-5 (IL-5) of 27.91 ± 8.61 pg/mL and an IL-13 (IL-13) of 89.58 ± 9.46 pg/mL.

For C[C@@H]1C[C@H]2[C@@H]3CCC4=CC(=O)C=C[C@]4(C)[C@@]3(F)[C@@H](O)C[C@]2(C)[C@@]1(O)C(=O)CO [positive control group, dexamethasone], the “Cell viability (%)” value [1] was 99.34 ± 0.14%, the inhibition at 0.1 µM (TARC) was 28.4 ± 8.77% and the inhibition at 0.1 µM (RANTES) was 97.1 ± 12.9%.
